Laboratory results taken from the kinase profiling compilation of Christmann-Franck et al. (2016).
Where “and” joins values, the source holds several entries; their conditions need not be identical. Equal entries are not always repeated.

Experiments:
Experiment in all cases: radiometric filter-binding kinase assay, Kinase HotSpot
Settings in all cases: compound 0.5 µM; ATP 10 µM
DAPK2 (human) = DAPK2 (human) (UniProt Q9UIK4)
PRKCZ (human) = PRKCZ (human) (UniProt Q05513)
LYN (human) = LYN (human) (UniProt P07948)
CAMK2G (human) = CAMK2G (human) (UniProt Q13555)
CSNK1G2 (human) = CSNK1G2 (human) (UniProt P78368)
CSNK1G2 (human), sequence (P78368 whole entry, looked up): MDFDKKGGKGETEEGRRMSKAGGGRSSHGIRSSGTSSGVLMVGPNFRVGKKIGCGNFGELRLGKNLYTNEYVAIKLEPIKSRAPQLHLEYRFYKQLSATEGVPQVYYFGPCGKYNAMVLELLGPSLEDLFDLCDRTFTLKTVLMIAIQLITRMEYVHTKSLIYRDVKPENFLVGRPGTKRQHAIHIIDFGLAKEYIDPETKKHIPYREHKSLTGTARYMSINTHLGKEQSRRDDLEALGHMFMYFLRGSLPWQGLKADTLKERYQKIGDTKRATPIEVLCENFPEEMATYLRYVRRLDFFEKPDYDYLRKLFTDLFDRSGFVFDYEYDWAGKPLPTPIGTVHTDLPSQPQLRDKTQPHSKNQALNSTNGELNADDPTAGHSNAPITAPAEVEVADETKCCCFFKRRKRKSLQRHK

PDPK1 (human) = PDPK1 (human) (UniProt O15530)
PKN2 (human) = PKN2 (human) (UniProt Q16513)
PRKCA (human) = PRKCA (human) (UniProt P17252)
MAP3K11 (human) = MAP3K11 (human) (UniProt Q16584)
MAP3K11 (human), sequence (Q16584 whole entry, looked up): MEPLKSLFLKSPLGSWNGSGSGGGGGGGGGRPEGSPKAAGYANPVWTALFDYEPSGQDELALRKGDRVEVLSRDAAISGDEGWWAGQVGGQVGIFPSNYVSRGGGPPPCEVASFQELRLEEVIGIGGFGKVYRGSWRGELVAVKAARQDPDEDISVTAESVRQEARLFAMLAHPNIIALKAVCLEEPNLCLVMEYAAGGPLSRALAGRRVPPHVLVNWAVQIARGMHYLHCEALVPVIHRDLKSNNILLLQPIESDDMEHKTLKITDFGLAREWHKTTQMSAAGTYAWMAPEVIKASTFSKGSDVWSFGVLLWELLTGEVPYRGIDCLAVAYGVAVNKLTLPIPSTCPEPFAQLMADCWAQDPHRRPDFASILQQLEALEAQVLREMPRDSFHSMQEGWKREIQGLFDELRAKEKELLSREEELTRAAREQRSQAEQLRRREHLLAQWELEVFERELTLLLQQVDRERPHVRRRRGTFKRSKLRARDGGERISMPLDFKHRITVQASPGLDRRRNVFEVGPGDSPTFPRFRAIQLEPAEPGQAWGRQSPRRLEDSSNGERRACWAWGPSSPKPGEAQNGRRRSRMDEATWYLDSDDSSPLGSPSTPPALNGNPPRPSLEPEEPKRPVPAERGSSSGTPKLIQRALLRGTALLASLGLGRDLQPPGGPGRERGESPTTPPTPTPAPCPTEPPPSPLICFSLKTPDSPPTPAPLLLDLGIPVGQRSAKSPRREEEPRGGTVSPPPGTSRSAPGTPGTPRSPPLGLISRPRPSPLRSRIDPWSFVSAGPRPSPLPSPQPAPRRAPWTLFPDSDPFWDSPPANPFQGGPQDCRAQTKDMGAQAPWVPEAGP

DMPK (human) = DMPK (human) (UniProt Q09013)
SGK3 (human) = SGK3 (human) (UniProt Q96BR1)
IKBKE (human) = IKBKE (human) (UniProt Q14164)
IKBKE (human), sequence (Q14164 whole entry, looked up): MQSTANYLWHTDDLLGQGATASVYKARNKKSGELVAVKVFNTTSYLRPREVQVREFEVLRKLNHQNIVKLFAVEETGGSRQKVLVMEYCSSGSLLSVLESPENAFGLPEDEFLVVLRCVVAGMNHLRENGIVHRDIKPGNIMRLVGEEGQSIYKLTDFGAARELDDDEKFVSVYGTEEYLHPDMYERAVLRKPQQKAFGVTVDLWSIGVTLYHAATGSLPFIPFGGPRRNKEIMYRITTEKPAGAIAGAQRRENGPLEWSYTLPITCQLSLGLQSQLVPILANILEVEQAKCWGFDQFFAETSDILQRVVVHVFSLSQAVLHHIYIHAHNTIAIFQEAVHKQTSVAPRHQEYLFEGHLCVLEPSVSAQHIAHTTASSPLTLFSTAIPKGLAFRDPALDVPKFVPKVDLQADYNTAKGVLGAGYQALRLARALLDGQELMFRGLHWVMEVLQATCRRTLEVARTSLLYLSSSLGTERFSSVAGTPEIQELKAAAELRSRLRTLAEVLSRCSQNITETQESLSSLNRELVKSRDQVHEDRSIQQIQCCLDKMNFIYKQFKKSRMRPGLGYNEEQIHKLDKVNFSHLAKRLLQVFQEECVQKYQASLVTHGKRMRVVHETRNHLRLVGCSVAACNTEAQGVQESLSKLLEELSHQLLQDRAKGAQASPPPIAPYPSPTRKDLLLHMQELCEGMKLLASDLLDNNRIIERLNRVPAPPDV

MAPK8 (human) = MAPK8 (human) (UniProt P45983)
KIT (human) = KIT (human) (UniProt P10721)
PAK3 (human) = PAK3 (human) (UniProt O75914)
PAK3 (human), sequence (O75914 whole entry, looked up): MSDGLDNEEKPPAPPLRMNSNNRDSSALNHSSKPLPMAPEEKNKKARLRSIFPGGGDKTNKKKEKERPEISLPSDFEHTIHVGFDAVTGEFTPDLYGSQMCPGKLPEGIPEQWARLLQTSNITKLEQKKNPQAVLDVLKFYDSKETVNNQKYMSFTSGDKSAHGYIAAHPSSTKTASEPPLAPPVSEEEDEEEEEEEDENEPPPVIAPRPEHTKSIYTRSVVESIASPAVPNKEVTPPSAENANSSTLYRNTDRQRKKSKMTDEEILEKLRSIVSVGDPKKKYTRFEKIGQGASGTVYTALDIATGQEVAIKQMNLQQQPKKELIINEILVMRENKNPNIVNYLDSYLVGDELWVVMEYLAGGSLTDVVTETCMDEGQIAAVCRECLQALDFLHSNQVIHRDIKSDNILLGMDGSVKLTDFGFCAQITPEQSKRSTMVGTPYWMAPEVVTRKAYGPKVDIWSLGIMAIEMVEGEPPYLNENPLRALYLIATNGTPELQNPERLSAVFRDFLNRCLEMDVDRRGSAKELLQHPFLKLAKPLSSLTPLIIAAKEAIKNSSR

PKN1 (human) = PKN1 (human) (UniProt Q16512)
STK39 (human) = STK39 (human) (UniProt Q9UEW8)
PIM3 (human) = PIM3 (human) (UniProt Q86V86)
LIMK1 (human) = LIMK1 (human) (UniProt P53667)
FYN (human) = FYN (human) (UniProt P06241)
ITK (human) = ITK (human) (UniProt Q08881)
CDK6 CCND1 (human) = CDK6 CCND1 (human) (UniProt Q00534+P24385)
JAK3 JH1 JH2 (human) = JAK3 JH1 JH2 (human) (UniProt P52333)
JAK3 JH1 JH2 (human), sequence (P52333 whole entry, looked up): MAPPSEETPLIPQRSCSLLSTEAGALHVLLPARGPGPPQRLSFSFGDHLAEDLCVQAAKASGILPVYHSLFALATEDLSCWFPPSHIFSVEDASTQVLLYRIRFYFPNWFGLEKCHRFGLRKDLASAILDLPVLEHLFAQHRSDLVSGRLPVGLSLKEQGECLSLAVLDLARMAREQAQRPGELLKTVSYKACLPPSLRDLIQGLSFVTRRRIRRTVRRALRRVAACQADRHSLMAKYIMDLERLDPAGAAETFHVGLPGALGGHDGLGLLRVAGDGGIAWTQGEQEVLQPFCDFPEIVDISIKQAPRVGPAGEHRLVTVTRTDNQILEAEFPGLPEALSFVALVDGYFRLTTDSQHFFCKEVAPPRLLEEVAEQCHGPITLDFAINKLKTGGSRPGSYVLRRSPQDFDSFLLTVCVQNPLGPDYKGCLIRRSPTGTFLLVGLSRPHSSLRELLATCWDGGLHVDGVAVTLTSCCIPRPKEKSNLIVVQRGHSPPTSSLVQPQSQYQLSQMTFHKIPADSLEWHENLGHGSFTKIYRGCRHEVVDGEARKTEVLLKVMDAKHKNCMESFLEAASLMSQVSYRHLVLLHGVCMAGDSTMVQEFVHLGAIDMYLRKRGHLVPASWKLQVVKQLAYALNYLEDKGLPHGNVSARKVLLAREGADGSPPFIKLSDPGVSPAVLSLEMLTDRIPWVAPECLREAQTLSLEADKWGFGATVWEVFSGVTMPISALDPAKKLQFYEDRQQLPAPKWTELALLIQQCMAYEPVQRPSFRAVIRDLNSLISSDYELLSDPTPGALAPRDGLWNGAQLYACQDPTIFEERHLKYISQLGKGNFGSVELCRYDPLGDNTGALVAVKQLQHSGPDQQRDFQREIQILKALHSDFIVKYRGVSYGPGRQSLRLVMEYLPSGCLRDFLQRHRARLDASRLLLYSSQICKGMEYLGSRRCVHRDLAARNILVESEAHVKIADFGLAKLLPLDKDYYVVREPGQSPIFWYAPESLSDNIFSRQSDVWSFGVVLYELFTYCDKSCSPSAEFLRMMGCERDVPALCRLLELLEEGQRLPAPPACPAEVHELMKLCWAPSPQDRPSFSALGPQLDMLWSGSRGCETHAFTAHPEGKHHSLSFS

DAPK3 (human) = DAPK3 (human) (UniProt O43293)
FGFR1 (human) = FGFR1 (human) (UniProt P11362)
MAPK3 (human) = MAPK3 (human) (UniProt P27361)
PAK7 (human) = PAK7 (human) (UniProt Q9P286)
NTRK3 (human) = NTRK3 (human) (UniProt Q16288)
CSNK1D (human) = CSNK1D (human) (UniProt P48730)
CDK5 CDK5R1 p25 (human) = CDK5 CDK5R1 p25 (human) (UniProt Q00535+Q15078)
CDK5 CDK5R1 p35 (human) = CDK5 CDK5R1 p35 (human) (UniProt Q00535+Q15078)
CAMK1D (human) = CAMK1D (human) (UniProt Q8IU85)
TBK1 (human) = TBK1 (human) (UniProt Q9UHD2)
MARK2 (human) = MARK2 (human) (UniProt Q7KZI7)
NTRK2 (human) = NTRK2 (human) (UniProt Q16620)
NEK6 (human) = NEK6 (human) (UniProt Q9HC98)
NEK6 (human), sequence (Q9HC98 whole entry, looked up): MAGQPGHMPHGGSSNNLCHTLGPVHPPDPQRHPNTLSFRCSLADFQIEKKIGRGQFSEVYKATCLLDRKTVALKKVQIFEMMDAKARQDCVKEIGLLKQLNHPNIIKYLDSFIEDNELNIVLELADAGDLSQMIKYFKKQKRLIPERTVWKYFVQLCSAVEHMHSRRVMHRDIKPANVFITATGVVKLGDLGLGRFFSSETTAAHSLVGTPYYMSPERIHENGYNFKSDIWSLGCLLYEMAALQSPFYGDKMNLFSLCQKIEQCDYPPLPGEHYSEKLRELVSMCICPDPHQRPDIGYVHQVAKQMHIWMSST

PAK4 (human) = PAK4 (human) (UniProt O96013)
TSSK1B (human) = TSSK1B (human) (UniProt Q9BXA7)
TSSK1B (human), sequence (Q9BXA7 whole entry, looked up): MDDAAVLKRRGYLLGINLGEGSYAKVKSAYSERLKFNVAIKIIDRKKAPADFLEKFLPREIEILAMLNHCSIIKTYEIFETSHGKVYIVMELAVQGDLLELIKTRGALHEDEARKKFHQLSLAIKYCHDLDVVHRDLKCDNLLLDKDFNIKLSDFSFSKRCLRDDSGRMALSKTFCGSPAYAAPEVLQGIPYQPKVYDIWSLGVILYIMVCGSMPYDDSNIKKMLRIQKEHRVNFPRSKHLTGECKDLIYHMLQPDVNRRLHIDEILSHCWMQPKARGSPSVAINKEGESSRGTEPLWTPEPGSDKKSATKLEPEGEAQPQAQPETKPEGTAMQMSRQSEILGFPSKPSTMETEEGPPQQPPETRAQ

ABL1 (human) = ABL1 (human) (UniProt P00519)
NEK9 (human) = NEK9 (human) (UniProt Q8TD19)
ERBB4 (human) = ERBB4 (human) (UniProt Q15303)

CS(=O)(=O)CCNCc1ccc(-c2ccc3ncnc(Nc4ccc(OCc5cccc(F)c5)c(Cl)c4)c3c2)o1
residual activity (DAPK2 (human)): 103% | residual activity (PRKCZ (human)): 79.7% | residual activity (LYN (human)): 103% and 104% | residual activity (CAMK2G (human)): 111% | residual activity (CSNK1G2 (human)): 99.5% | residual activity (PDPK1 (human)): 86.4% | residual activity (PKN2 (human)): 92% | residual activity (PRKCA (human)): 83% | residual activity (MAP3K11 (human)): 106% | residual activity (DMPK (human)): 94.7% | residual activity (SGK3 (human)): 102% | residual activity (IKBKE (human)): 94.9% | residual activity (MAPK8 (human)): 91.9% | residual activity (KIT (human)): 98.4% | residual activity (PAK3 (human)): 105% | residual activity (PKN1 (human)): 106% | residual activity (STK39 (human)): 100% | residual activity (PIM3 (human)): 93.7% | residual activity (LIMK1 (human)): 95.2% | residual activity (FYN (human)): 99.4% | residual activity (ITK (human)): 98.3% | residual activity (CDK6 CCND1 (human)): 100% | residual activity (JAK3 JH1 JH2 (human)): 96.2% | residual activity (DAPK3 (human)): 97.4% | residual activity (FGFR1 (human)): 102% | residual activity (MAPK3 (human)): 94.8% | residual activity (PAK7 (human)): 98.5% | residual activity (NTRK3 (human)): 103% | residual activity (CSNK1D (human)): 91.2% | residual activity (CDK5 CDK5R1 p25 (human)): 90.4% | residual activity (CDK5 CDK5R1 p35 (human)): 103% | residual activity (CAMK1D (human)): 104% | residual activity (TBK1 (human)): 103% | residual activity (MARK2 (human)): 137% | residual activity (NTRK2 (human)): 98.8% | residual activity (NEK6 (human)): 93.7% | residual activity (PAK4 (human)): 89.9% | residual activity (TSSK1B (human)): 79% | residual activity (ABL1 (human)): 96.4% | residual activity (NEK9 (human)): 100% | residual activity (ERBB4 (human)): 11.2%

C[C@@H]1CCN(C(=O)CC#N)C[C@@H]1N(C)c1ncnc2[nH]ccc12
residual activity (DAPK2 (human)): 89.5% | residual activity (PRKCZ (human)): 91.7% | residual activity (LYN (human)): 96.3% and 98.6% | residual activity (CAMK2G (human)): 127% | residual activity (CSNK1G2 (human)): 95.4% | residual activity (PDPK1 (human)): 94.1% | residual activity (PRKCA (human)): 78.7% | residual activity (MAP3K11 (human)): 104% | residual activity (DMPK (human)): 108% | residual activity (SGK3 (human)): 98.1% | residual activity (IKBKE (human)): 94.8% | residual activity (MAPK8 (human)): 108% | residual activity (KIT (human)): 98.9% | residual activity (PAK3 (human)): 105% | residual activity (PKN1 (human)): 16.5% | residual activity (STK39 (human)): 95.1% | residual activity (PIM3 (human)): 96.5% | residual activity (LIMK1 (human)): 82% | residual activity (ITK (human)): 99.1% | residual activity (CDK6 CCND1 (human)): 96.5% | residual activity (DAPK3 (human)): 106% | residual activity (FGFR1 (human)): 101% | residual activity (MAPK3 (human)): 98.6% | residual activity (PAK7 (human)): 93.6% | residual activity (NTRK3 (human)): 90% | residual activity (CDK5 CDK5R1 p25 (human)): 100% | residual activity (CDK5 CDK5R1 p35 (human)): 99.5% | residual activity (TBK1 (human)): 92.5% | residual activity (MARK2 (human)): 91.8% | residual activity (NTRK2 (human)): 97.1% | residual activity (NEK6 (human)): 83.2% | residual activity (PAK4 (human)): 99.2% | residual activity (TSSK1B (human)): 85.1% | residual activity (ABL1 (human)): 101% | residual activity (NEK9 (human)): 96.2% | residual activity (ERBB4 (human)): 100%

Cn1c2ccccc2c2c3c(c4c5ccccc5n(CCC#N)c4c21)CNC3=O
residual activity (DAPK2 (human)): 84.4% | residual activity (PRKCZ (human)): 87% | residual activity (LYN (human)): 90.3% and 94.4% | residual activity (CAMK2G (human)): 21.9% | residual activity (CSNK1G2 (human)): 105% | residual activity (PDPK1 (human)): 63.2% | residual activity (PKN2 (human)): 67.7% | residual activity (PRKCA (human)): 7.58% | residual activity (MAP3K11 (human)): 2.19% | residual activity (DMPK (human)): 101% | residual activity (SGK3 (human)): 112% | residual activity (IKBKE (human)): 69.4% | residual activity (MAPK8 (human)): 78.7% | residual activity (KIT (human)): 96.9% | residual activity (PAK3 (human)): 122% | residual activity (PKN1 (human)): 10.3% | residual activity (STK39 (human)): 96.7% | residual activity (PIM3 (human)): 17.3% | residual activity (LIMK1 (human)): 45.3% | residual activity (FYN (human)): 90.6% | residual activity (ITK (human)): 4.32% | residual activity (CDK6 CCND1 (human)): 39.4% | residual activity (JAK3 JH1 JH2 (human)): 2.44% | residual activity (DAPK3 (human)): 93.6% | residual activity (FGFR1 (human)): 63.3% | residual activity (MAPK3 (human)): 72.6% | residual activity (PAK7 (human)): 37.1% | residual activity (NTRK3 (human)): 0.198% | residual activity (CSNK1D (human)): 97.5% | residual activity (CDK5 CDK5R1 p25 (human)): 21.3% | residual activity (CDK5 CDK5R1 p35 (human)): 8.52% | residual activity (CAMK1D (human)): 82.4% | residual activity (TBK1 (human)): 72.1% | residual activity (MARK2 (human)): 11.8% | residual activity (NTRK2 (human)): 0.815% | residual activity (NEK6 (human)): 103% | residual activity (PAK4 (human)): 44% | residual activity (TSSK1B (human)): 10.1% | residual activity (ABL1 (human)): 84.6% | residual activity (NEK9 (human)): 96.9% | residual activity (ERBB4 (human)): 100%

N#Cc1c[nH]c2c[nH]/c(=N\Cc3cccnc3)cc2/c1=N\c1ccc(F)c(Cl)c1
residual activity (DAPK2 (human)): 108% | residual activity (PRKCZ (human)): 93.9% | residual activity (LYN (human)): 90.4% and 94.1% | residual activity (CAMK2G (human)): 91.2% | residual activity (CSNK1G2 (human)): 102% | residual activity (PDPK1 (human)): 85.3% | residual activity (PKN2 (human)): 85.9% | residual activity (PRKCA (human)): 89.7% | residual activity (MAP3K11 (human)): 89% | residual activity (DMPK (human)): 104% | residual activity (SGK3 (human)): 91.5% | residual activity (IKBKE (human)): 90.6% | residual activity (MAPK8 (human)): 110% | residual activity (KIT (human)): 92.9% | residual activity (PAK3 (human)): 99.2% | residual activity (PKN1 (human)): 101% | residual activity (STK39 (human)): 78.6% | residual activity (PIM3 (human)): 85% | residual activity (LIMK1 (human)): 101% | residual activity (FYN (human)): 103% | residual activity (ITK (human)): 99.1% | residual activity (CDK6 CCND1 (human)): 92.2% | residual activity (JAK3 JH1 JH2 (human)): 86.2% | residual activity (DAPK3 (human)): 101% | residual activity (FGFR1 (human)): 83.4% | residual activity (MAPK3 (human)): 100% | residual activity (PAK7 (human)): 98.3% | residual activity (NTRK3 (human)): 93.2% | residual activity (CSNK1D (human)): 88.4% | residual activity (CDK5 CDK5R1 p25 (human)): 78.3% | residual activity (CDK5 CDK5R1 p35 (human)): 80.4% | residual activity (CAMK1D (human)): 97.8% | residual activity (TBK1 (human)): 83.4% | residual activity (MARK2 (human)): 93.2% | residual activity (NTRK2 (human)): 101% | residual activity (NEK6 (human)): 104% | residual activity (PAK4 (human)): 85.4% | residual activity (TSSK1B (human)): 84.4% | residual activity (ABL1 (human)): 93.4% | residual activity (NEK9 (human)): 96.3% | residual activity (ERBB4 (human)): 72.6%

CO[C@@H]1[C@H](N(C)C(=O)c2ccccc2)C[C@H]2O[C@]1(C)n1c3ccccc3c3c4c(c5c6ccccc6n2c5c31)C(=O)NC4
residual activity (DAPK2 (human)): 105% | residual activity (PRKCZ (human)): 98.6% | residual activity (CAMK2G (human)): 43.9% | residual activity (CSNK1G2 (human)): 98.3% | residual activity (PDPK1 (human)): 21.8% | residual activity (PKN2 (human)): 11.4% | residual activity (MAP3K11 (human)): 1.38% | residual activity (DMPK (human)): 112% | residual activity (SGK3 (human)): 93.5% | residual activity (IKBKE (human)): 9.85% | residual activity (MAPK8 (human)): 88.3% | residual activity (PKN1 (human)): 1.37% | residual activity (STK39 (human)): 96% | residual activity (PIM3 (human)): 60.8% | residual activity (LIMK1 (human)): 19.6% | residual activity (FYN (human)): 34% | residual activity (ITK (human)): 70.6% | residual activity (CDK6 CCND1 (human)): 96.5% | residual activity (JAK3 JH1 JH2 (human)): 0.781% | residual activity (DAPK3 (human)): 82.6% | residual activity (FGFR1 (human)): 36.1% | residual activity (MAPK3 (human)): 88.4% | residual activity (PAK7 (human)): 90.4% | residual activity (CSNK1D (human)): 101% | residual activity (CDK5 CDK5R1 p25 (human)): 73.3% | residual activity (CDK5 CDK5R1 p35 (human)): 74.1% | residual activity (TBK1 (human)): 3.22% | residual activity (NTRK2 (human)): 12.8% | residual activity (NEK6 (human)): 110% | residual activity (TSSK1B (human)): 8.24% | residual activity (ABL1 (human)): 82.7% | residual activity (NEK9 (human)): 64.4%
